Results from ChEMBL document CHEMBL4190267, “Discovery of potent molecular chimera (CM358) to treat human metastatic melanoma” (Eur J Med Chem, 2017).
Activity calls are given as the source filed them. The rule behind the calls is not given here.

Key:
WM 266-4 [1] = assay: Induction of apoptosis in human WM266.4 cells assessed as late apoptotic cells at 10 uM after 2 hrs by Annexin V-FITC/propidium iodide staining based flow cytometry (reference value: 1.41%); type: functional
NCI-H1299 = assay: Growth inhibition of human NCI-H1299 cells preincubated for 6 hrs followed compound washout measured after 24 hrs by XTT assay; type: functional
WM 266-4 [2] = assay: Induction of apoptosis in human WM266.4 cells assessed as live cells at 10 uM after 2 hrs by Annexin V-FITC/propidium iodide staining based flow cytometry (reference value: 94.7%); type: functional
WM 266-4 [3] = assay: Induction of apoptosis in human WM266.4 cells assessed as live cells at 10 uM after 8 hrs by Annexin V-FITC/propidium iodide staining based flow cytometry (reference value: 94.7%); type: functional
WM 266-4 [4] = assay: Growth inhibition of human WM266.4 cells at 1 uM incubated up to 96 hrs by XTT assay; type: functional, cell-based
Mus musculus = assay: Toxicity in athymic Foxn1 nu mouse assessed as abnormal gross behavioral changes at 10 mg/kg, ip administered once daily for 3 days followed by resting period of 4 days repeated for 4 weeks; type: organism-based; conditions: in vivo
WM 266-4 [5] = assay: Induction of apoptosis in human WM266.4 cells assessed as early apoptotic cells at 10 uM after 2 hrs by Annexin V-FITC/propidium iodide staining based flow cytometry (reference value: 2.64%); type: functional
WM 266-4 [6] = assay: (§1) Antitumor activity against human WM266.4 cells xenografted in athymic Foxn1 nu mouse assessed as tumor growth inhibition at 5 mg/kg, ip administered once daily for 7 days followed by resting period of 2 days repeated for 4 weeks starting from 5 days post tumor inoculation measured on day 21; type: functional, organism-based
WM 266-4 [7] = assay: Induction of apoptosis in human WM266.4 cells assessed as late apoptotic cells at 10 uM after 8 hrs by Annexin V-FITC/propidium iodide staining based flow cytometry (reference value: 1.41%); type: functional
WM 266-4 [8] = assay: Induction of apoptosis in human WM266.4 cells assessed as live cells at 25 uM after 8 hrs by Annexin V-FITC/propidium iodide staining based flow cytometry (reference value: 94.7%); type: functional
[9] = Half life in pH 7.4 PBS buffer by LC-MS analysis; type: physicochemical
WM 266-4 [10] = assay: Cell cycle arrest in human WM266.4 cells assessed as accumulation at G2 phase at 10 uM after 8 hrs by propidium iodide staining based flow cytometry (reference value: 11%); type: functional
WM 266-4 [11] = assay: Induction of apoptosis in human WM266.4 cells assessed as necrotic cells at 25 uM after 2 hrs by Annexin V-FITC/propidium iodide staining based flow cytometry (reference value: 1.22%); type: functional
A 172 = assay: Growth inhibition of human A172 cells preincubated for 6 hrs followed compound washout measured after 24 hrs by XTT assay; type: functional
WM 266-4 [12] = assay: Induction of apoptosis in human WM266.4 cells assessed as live cells at 25 uM after 24 hrs by Annexin V-FITC/propidium iodide staining based flow cytometry (reference value: 94.7%); type: functional
WM 266-4 [13] = assay: Growth inhibition of human WM266.4 cells at 25 uM after 24 hrs by XTT assay; type: functional, cell-based
[14] = target: DNA topoisomerase 2-alpha (Homo sapiens) (UniProt P11388); assay: Inhibition of human topoisomerase-2alpha assessed as reduction in enzyme-mediated decatenation at 25 uM using kinetoplast DNA as substrate after 25 mins by ethidium bromide staining based agarose gel electrophoresis method
Chain of DNA topoisomerase 2-alpha (Homo sapiens) (P11388 whole entry): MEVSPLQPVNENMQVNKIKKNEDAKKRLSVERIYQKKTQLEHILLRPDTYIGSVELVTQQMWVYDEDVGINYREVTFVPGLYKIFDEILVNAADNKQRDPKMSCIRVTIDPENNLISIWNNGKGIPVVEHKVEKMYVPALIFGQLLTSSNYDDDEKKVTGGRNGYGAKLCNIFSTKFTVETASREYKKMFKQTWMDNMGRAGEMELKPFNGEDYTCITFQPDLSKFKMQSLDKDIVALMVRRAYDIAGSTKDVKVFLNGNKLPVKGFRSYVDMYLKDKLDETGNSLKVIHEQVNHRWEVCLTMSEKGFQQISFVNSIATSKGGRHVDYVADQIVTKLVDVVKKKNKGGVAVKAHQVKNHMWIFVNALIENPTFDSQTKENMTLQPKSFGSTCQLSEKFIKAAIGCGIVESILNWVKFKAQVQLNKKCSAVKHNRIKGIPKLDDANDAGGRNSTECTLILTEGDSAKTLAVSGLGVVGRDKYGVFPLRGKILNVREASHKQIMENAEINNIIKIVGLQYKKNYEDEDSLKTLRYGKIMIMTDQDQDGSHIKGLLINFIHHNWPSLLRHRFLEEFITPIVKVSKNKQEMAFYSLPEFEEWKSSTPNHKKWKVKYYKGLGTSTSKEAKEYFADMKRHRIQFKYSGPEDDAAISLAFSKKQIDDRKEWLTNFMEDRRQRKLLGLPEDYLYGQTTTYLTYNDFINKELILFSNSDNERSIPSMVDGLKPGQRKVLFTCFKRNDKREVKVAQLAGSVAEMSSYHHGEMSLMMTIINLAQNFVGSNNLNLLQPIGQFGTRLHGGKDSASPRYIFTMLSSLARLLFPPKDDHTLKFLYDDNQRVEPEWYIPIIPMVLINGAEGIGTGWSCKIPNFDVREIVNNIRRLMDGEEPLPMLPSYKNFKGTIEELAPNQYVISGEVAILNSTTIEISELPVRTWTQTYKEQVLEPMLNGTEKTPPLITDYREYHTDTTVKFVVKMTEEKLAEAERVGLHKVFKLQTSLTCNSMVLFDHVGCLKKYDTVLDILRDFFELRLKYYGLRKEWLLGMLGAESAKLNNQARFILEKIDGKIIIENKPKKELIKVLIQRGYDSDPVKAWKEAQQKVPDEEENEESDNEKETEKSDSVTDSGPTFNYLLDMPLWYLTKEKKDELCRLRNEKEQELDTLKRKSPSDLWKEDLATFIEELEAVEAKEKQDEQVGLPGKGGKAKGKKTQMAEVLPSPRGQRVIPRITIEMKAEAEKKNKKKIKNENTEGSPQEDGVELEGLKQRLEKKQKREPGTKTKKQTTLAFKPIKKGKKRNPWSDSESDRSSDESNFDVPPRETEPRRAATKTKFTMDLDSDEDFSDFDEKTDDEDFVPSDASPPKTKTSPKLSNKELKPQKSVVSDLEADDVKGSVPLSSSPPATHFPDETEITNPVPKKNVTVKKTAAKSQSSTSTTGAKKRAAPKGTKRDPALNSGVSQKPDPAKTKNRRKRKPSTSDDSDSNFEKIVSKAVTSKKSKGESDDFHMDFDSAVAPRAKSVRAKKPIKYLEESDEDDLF

WM 266-4 [15] = assay: Growth inhibition of human WM266.4 cells preincubated for 6 hrs followed compound washout measured after 24 hrs by XTT assay; type: functional
WM 266-4 [16] = assay: Induction of apoptosis in human WM266.4 cells assessed as early apoptotic cells at 10 uM after 8 hrs by Annexin V-FITC/propidium iodide staining based flow cytometry (reference value: 2.64%); type: functional
WM 266-4 [17] = assay: as §1, with “at 10” for “at 5”, “21 relative to control” for “21”; type: functional; conditions: WM 266-4, ip, read-out: TGI
WM 266-4 [18] = assay: Induction of apoptosis in human WM266.4 cells assessed as necrotic cells at 25 uM after 8 hrs by Annexin V-FITC/propidium iodide staining based flow cytometry (reference value: 1.22%); type: functional
WM 266-4 [19] = assay: Induction of apoptosis in human WM266.4 cells assessed as late apoptotic cells at 10 uM after 24 hrs by Annexin V-FITC/propidium iodide staining based flow cytometry (reference value: 1.41%); type: functional
WM 266-4 [20] = assay: Induction of apoptosis in human WM266.4 cells assessed as early apoptotic cells at 25 uM after 2 hrs by Annexin V-FITC/propidium iodide staining based flow cytometry (reference value: 2.64%); type: functional
WM 266-4 [21] = assay: Antitumor activity against human WM266.4 cells xenografted in athymic Foxn1 nu mouse assessed as tumor growth inhibition at 10 mg/kg, ip administered once daily for 7 days followed by resting period of 2 days repeated for 4 weeks starting from 5 days post tumor inoculation measured on day 19; type: functional, organism-based
[22] = Half life in human WM266.4 cells by LC-MS analysis; type: ADME, cell-based, WM 266-4

Work on `CN(C)CCN1C(=O)c2cccc3cc(NC(=O)CCCc4ccc(N(CCCl)CCCl)cc4)cc(c23)C1=O.O=C(O)C(F)(F)F` yielded an Activity (WM 266-4 [1]) of 1.46%, a GI50 (NCI-H1299) of 6.8 µM and an Activity (WM 266-4 [2]) of 86.9%. The Activity (WM 266-4 [3]) was 82.4%, the “growth inhibition (GI)” value (WM 266-4 [4]) was “inactive” and the Activity (Mus musculus) was “Non-Toxic”. The Activity (WM 266-4 [5]) was 5.05%, the TGI (WM 266-4 [6]) was “inactive” and the Activity (WM 266-4 [7]) was 1.59%. It also gave an Activity (WM 266-4 [8]) of 61.1%, a half-life [9] of 25 h and an Activity (WM 266-4 [10]) of 17%. The Activity (WM 266-4 [11]) was 16.4%, the GI50 (A 172) was 7.5 µM and the Activity (WM 266-4 [12]) was 40%. For the same compound, the “growth inhibition (GI)” value (WM 266-4 [13]) was “Active”, the inhibition [14] was “Active” and the GI50 (WM 266-4 [15]) was 8.8 µM. The Activity (WM 266-4 [16]) was 6.66%, the inhibition in vivo at 10 mg/kg (WM 266-4 [17]) was 40% and the Activity (WM 266-4 [18]) was 27.9%. For the same compound, the Activity (WM 266-4 [19]) was 1.29%, the Activity (WM 266-4 [20]) was 6.79% and the TGI (WM 266-4 [21]) was “Active”. The half-life [22] was 25 h.
